Tests used:
[1] = target: T1, BTK enzyme (Homo sapiens, UniProt Q06187); test: In vitro BTK kinase assay: BTK-POLYGAT-LS assay; assay type: biochemical; settings: ATP 10 μM, read-out: IC50 (10uMATP)
T1 construct: purchased Upstate 14-552
Method in brief: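 Human BTK activity was measured with final 10 μM ATP and 100 nM polyGAT substrate in pH 7.5 Tris buffer with 10 mM MgCl2, DTT, Triton X-100 and casein.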

[2] = target: BTK (phospho-BTK) in human whole blood (Homo sapiens, UniProt Q06187); test: In vitro PD assay in human whole blood (pBTK assay)
BTK (phospho-BTK) in human whole blood, sequence (Q06187 whole entry): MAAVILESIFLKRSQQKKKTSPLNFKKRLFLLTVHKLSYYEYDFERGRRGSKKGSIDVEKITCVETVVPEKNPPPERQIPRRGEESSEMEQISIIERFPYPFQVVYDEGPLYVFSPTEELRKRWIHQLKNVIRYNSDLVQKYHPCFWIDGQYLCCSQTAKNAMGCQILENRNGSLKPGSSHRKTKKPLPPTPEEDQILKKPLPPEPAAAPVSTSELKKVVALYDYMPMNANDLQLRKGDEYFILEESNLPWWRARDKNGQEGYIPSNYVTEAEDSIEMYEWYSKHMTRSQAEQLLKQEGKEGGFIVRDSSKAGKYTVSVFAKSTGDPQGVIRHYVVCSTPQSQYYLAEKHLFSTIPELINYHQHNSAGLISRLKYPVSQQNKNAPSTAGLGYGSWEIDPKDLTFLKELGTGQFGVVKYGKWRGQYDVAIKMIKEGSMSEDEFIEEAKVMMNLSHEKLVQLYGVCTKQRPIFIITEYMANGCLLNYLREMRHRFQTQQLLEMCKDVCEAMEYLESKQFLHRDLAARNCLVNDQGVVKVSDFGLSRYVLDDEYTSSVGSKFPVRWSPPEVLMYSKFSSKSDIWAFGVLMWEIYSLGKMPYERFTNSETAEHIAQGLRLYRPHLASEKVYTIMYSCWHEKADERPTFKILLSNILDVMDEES

T1 sequence (Q06187 whole entry): as above

Structure (SMILES)	IC50 [1]	IC50 [2]
Cc1cc(-c2ccnc(Nc3cnn(C4CCNCC4)c3)n2)ccc1CNC(=O)c1cnc(C(C)(C)C)s1 [Example I-45, 2-(tert-butyl)-N-(2-methyl-4-(2-((1-(piperidin-4-yl)-1H-pyrazol-4-yl)amino)pyrimidin-4-yl)benzyl)thiazole-5-carboxamide]	< 10 nM	< 500 nM
Cc1cc(-c2ccnc(Nc3cnn(C4CCN(C)CC4)c3)n2)ccc1CNC(=O)c1cnc(C(C)(C)C)s1 [Example I-46, 2-(tert-butyl)-N-(2-methyl-4-(2-((1-(1-methylpiperidin-4-yl)-1H-pyrazol-4-yl)amino)pyrimidin-4-yl)benzyl)thiazole-5-carboxamide]	< 10 nM	< 500 nM
Cc1cc(-c2ccnc(Nc3cnn(C4CCN(S(C)(=O)=O)CC4)c3)n2)ccc1CNC(=O)c1cnc(C(C)(C)C)s1 [Example I-47, 2-(tert-butyl)-N-(2-methyl-4-(2-((1-(1-(methylsulfonyl)piperidin-4-yl)-1H-pyrazol-4-yl)amino)pyrimidin-4-yl)benzyl)thiazole-5-carboxamide]	< 10 nM	500 to 1500 nM
Cc1cc(-c2ccnc(Nc3cnn([C@H]4CC[C@@H](C(=O)O)CC4)c3)n2)ccc1CNC(=O)c1cnc(C(C)(C)C)s1 [Example I-48, cis-4-(4-((4-(4-((2-(tert-butyl)thiazole-5-carboxamido)methyl)-3-methylphenyl)pyrimidin-2-yl)amino)-1H-pyrazol-1-yl)cyclohexanecarboxylic acid]	< 10 nM	< 500 nM
Cc1cc(-c2ccnc(Nc3cnn([C@H]4CC[C@H](C(=O)O)CC4)c3)n2)ccc1CNC(=O)c1cnc(C(C)(C)C)s1 [Example I-49, trans-4-(4-((4-(4-((2-(tert-butyl)thiazole-5-carboxamido)methyl)-3-methylphenyl)pyrimidin-2-yl)amino)-1H-pyrazol-1-yl)cyclohexanecarboxylic acid]	< 10 nM	< 500 nM
Cc1cc(-c2ccnc(Nc3cnn(CCN)c3)n2)ccc1CNC(=O)c1cnc(C(C)(C)C)s1 [Example I-50, N-(4-(2-((1-(2-aminoethyl)-1H-pyrazol-4-yl)amino)pyrimidin-4-yl)-2-methylbenzyl)-2-(tert-butyl)thiazole-5-carboxamide]	< 10 nM	< 500 nM
Cc1cc(-c2ccnc(Nc3cn(C)nc3C)n2)ccc1CNC(=O)c1cnc(C(C)(C)C)s1 [Example I-51, 2-(tert-butyl)-N-(4-(2-((1,3-dimethyl-1H-pyrazol-4-yl)amino)pyrimidin-4-yl)-2-methylbenzyl)thiazole-5-carboxamide]	< 10 nM	500 to 1500 nM
Cc1cc(-c2ccnc(Nc3cnn(C)c3C)n2)ccc1CNC(=O)c1cnc(C(C)(C)C)s1 [Example I-52, 2-(tert-butyl)-N-(4-(2-((1,5-dimethyl-1H-pyrazol-4-yl)amino)pyrimidin-4-yl)-2-methylbenzyl)thiazole-5-carboxamide]	< 10 nM	< 500 nM
Cc1cc(-c2ccnc(Nc3cc4n(n3)CCNC4)n2)ccc1CNC(=O)c1cnc(C(C)(C)C)s1 [Example I-54, 2-(tert-butyl)-N-(2-methyl-4-(2-((4,5,6,7-tetrahydropyrazolo[1,5-a]pyrazin-2-yl)amino)pyrimidin-4-yl)benzyl)thiazole-5-carboxamide]	< 10 nM	500 to 1500 nM
Cc1cc(-c2ccnc(Nc3cc4n(n3)CCN(C)C4)n2)ccc1CNC(=O)c1cnc(C(C)(C)C)s1 [Example I-55, 2-(tert-butyl)-N-(2-methyl-4-(2-((5-methyl-4,5,6,7-tetrahydropyrazolo[1,5-a]pyrazin-2-yl)amino)pyrimidin-4-yl)benzyl)thiazole-5-carboxamide]	< 10 nM	1500 to 10000 nM
CCN1CCn2nc(Nc3nccc(-c4ccc(CNC(=O)c5cnc(C(C)(C)C)s5)c(C)c4)n3)cc2C1 [Example I-56, 2-(tert-butyl)-N-(4-(2-((5-ethyl-4,5,6,7-tetrahydropyrazolo[1,5-a]pyrazin-2-yl)amino)pyrimidin-4-yl)-2-methylbenzyl)thiazole-5-carboxamide]	< 10 nM	500 to 1500 nM
